Measurements taken from patent publication US20160184459A1, “CANCER CELL SPECIFIC IMAGING PROBES AND METHODS OF USE” (THE RESEARCH FOUNDATION FOR THE STATE UNIVERSITY OF NEW YORK, priority 2013, published 2016).
pIC50: −log10 of the molar value.

Experiments:
[1] = tested on: malignant cell lines with high HDAC and CTSL activity (COGA-10, HCA-7, HT29, HCT116); assay: MTS cell viability assay, malignant colon cancer cell lines; assay type: cell-based; conditions: Homo sapiens, 120 h, 5 d, read-out: IC50, inhibition of cell viability
Protocol: FIG. 13. Inhibition of cell viability by BKAc-Puro is presented in dose-response curve format for the same cell lines as in FIG. 8. The cell lines were treated with DMSO or the indicated doses of agent (4.22, 8.44, 16.9, 33.8, 67.5, or 135 μM) for 5 d followed by MTS assay. Data represent mean values of triplicate measurements±s.d. (n=3). IC50 values were fit by logistic regression.
(§1) Cell number was determined by cell counting using improved Neubauer hemacytometer. Cell viability was calculated as the number of viable cells divided by the total number of cells using Trypan Blue Stain (Invitrogen) to distinguish non-viable cells. Data were obtained from duplicated samples with quadruplicate measurements. MTS based cell viability assay was performed using CellTiter 96 Aqueous Cell Proliferation Assay (Promega) according to the manufacturer's instruction. […] After additional 2-3 h incubation, the absorbance of the formazan at 490 nm was measured by the microplate reader. […] Determination of non-viable cells using PI staining was performed by adding 1 μg/ml of PI solution (Sigma) to the cell culture, prior to the examination under fluorescence microscopy (Axiovert 3, Carl Zeiss) through a×32 objective equipped with a digital imaging processor (Infinity 3, Lumenera).

CCD841-CoN = assay: Cell viability assays, normal colon cells; assay type: cell-based, human; conditions: negative control cells
Protocol: FIG. 15. Inhibition of cell viability by BKAc-Puro. The cell lines were grown and analyzed as in FIG. 12.
FIG. 18. Selective cytotoxicity by BKAc-Puro on pancreatic cancer cells. Pancreatic cancer (BXPC-3 and Miapaca-2), colon cancer (HCT116 as a positive control sensitive to the drug), and normal colon (CCD841-CoN as a negative control) cells were grown and analyzed as in FIG. 13. BKAc-Puro can effectively cause cell death on pancreatic cancer cells (BXPC-3 and MiaPaca-2) that are known to resistant to conventional chemotherapeutic drugs including 5-FU and Gemicitabine.
FIG. 19. Selective cytotoxicity by BKAc-Puro on prostate cancer cells. Prostate cancer (PC-3, DU-145, and LNCaP), colon cancer (HCT116 as a positive control sensitive to the drug), and normal colon (CCD841-CoN as a negative control) cells were grown and analyzed as in FIG. 13. BKAc-Puro can effectively cause cell death on prostate cancer cells.
Cell number was determined by cell counting using improved Neubauer hemacytometer. Cell viability was calculated as the number of viable cells divided by the total number of cells using Trypan Blue Stain (Invitrogen) to distinguish non-viable cells. Data were obtained from duplicated samples with quadruplicate measurements. […] After additional 2-3 h incubation, the absorbance of the formazan at 490 nm was measured by the microplate reader. […]

[2] = tested on: malignant colon cancer cells with high HDAC and CTSL activity; assay: Cell counting, trypan blue exclusion and PI staining, malignant colon cancer cell lines; assay type: cell-based, human; conditions: 54 μM
Protocol: FIG. 9. The colon cancer cell lines were grown for 5 d either with vehicle control DMSO (gray symbols) or 54 μM BKAc-Puro (red and blue symbols), and cell number was determined at the indicated time points.
FIG. 10. The cell lines were grown as in FIG. 8, cell viability was determined by trypan blue at the indicated time points, and is presented as the percentage of live cells treated with vehicle control (gray symbols) or BKAc-Puro (red and blue symbols).
FIG. 11. The cell lines were grown as in FIG. 8, and dead cells were determined after 80 h by PI signal under fluorescent microscope. BF, bright field. PI, fluorescent PI channel.
as §1, with “measurements.” for “measurements. MTS based cell viability assay was performed using CellTiter 96 Aqueous Cell Proliferation Assay (Promega) according to the manufacturer's instruction.”

SMILES: COc1ccc(CC(NC(=O)C(CCCCNC(C)=O)NC(=O)OC(C)(C)C)C(=O)NC2C(O)[C@H](n3cnc4c(N(C)C)ncnc43)O[C@@H]2CO)cc1 (stereo partly drawn) [BKAc-Puro, N-[3′-(α-Amino-p-methoxyhydrocinnamamido)-3′-deoxy-N,N-dimethyldenosinyl)-N-α-(t-butoxycarbonyl]-N-ε-acetyl-L-lysineamide]
- pIC50 [1]: ~5.00
- Effect on normal colon cells (CCD841-CoN): relatively little effect
- Cell death (trypan blue exclusion, morphology, PI staining) [2]: massive cell death
- Cell proliferation (cell number) ([2]; 5 d): impaired the proliferation
